Experiments:
GI.3P-GI.2 TX1 3CLpro = GI.3P-GI.2 TX1 3CLpro (Rabbit hemorrhagic disease virus 2, UniProt A0A7M4BDB7); experiment: FRET assay, 3CLpro of GI.3P-GI.2 TX1 strain; type: biochemical, GI.3P-GI.2 (RHDV2/b); settings: 30 min preincubation with 3CLpro, 30 min with substrate, mean ± SEM, at least three experiments
[1] = Cytotoxicity assay (CytoTox 96, lactate dehydrogenase release); type: cell-based; settings: human, 293T cells, up to 100 μM
Experimental: To determine the cytotoxicity of the compounds, 70 to 80% confluent 293T cells in a 96-well plate were incubated with serial dilutions of each compound (up to 100 μM) for 5 h. Cell cytotoxicity was determined by a CytoTox 96 nonradioactive assay kit (Promega, Madison, WI) by measuring a cytosolic enzyme lactate dehydrogenase, which is released upon cell lysis, following the manufacturer’s instructions, and the 50% cytotoxic concentration (CC50) value for each compound was calculated using GraphPad Prism software. The nonspecific cytotoxic effects of these compounds were also reported previously ([30], [31], [40], [43], [44]).

3CLpro of GI.3P-GI.2 TX1 = target: T1, 3CLpro of GI.3P-GI.2 TX1 (Rabbit hemorrhagic disease virus 2, UniProt A0A7M4BDB7); experiment: cell-based; parameters: species or system GI.3P-GI.2 (RHDV2/b)
T1 sequence (A0A7M4BDB7 1109-1251): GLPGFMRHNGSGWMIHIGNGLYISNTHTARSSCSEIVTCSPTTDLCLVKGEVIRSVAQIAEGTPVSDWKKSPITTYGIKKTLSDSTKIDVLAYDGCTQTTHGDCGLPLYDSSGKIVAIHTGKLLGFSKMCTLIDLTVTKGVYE

GI.1c/RHDV FRG 3CLpro = GI.1c/RHDV FRG 3CLpro (Rabbit hemorrhagic disease virus, UniProt P27410); experiment: FRET assay, 3CLpro of GI.1c/RHDV FRG strain; type: biochemical; settings: 30 min preincubation with 3CLpro, 30 min with substrate, mean ± SEM, at least three experiments, read-out: IC50 GI.Ic/RHDV FRG
Chain of GI.1c/RHDV FRG 3CLpro (P27410 1109-1251 limits assumed): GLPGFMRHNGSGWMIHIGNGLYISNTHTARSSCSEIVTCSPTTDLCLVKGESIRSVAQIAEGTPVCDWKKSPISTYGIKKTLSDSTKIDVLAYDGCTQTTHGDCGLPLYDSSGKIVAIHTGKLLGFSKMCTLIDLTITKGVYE

GII.1/EBHSV G104 3CLpro = GII.1/EBHSV G104 3CLpro (European brown hare syndrome virus, UniProt Q96725); experiment: FRET assay, 3CLpro of GII.1/EBHSV G104 strain; type: biochemical
Chain of GII.1/EBHSV G104 3CLpro (Q96725 1102-1244 limits assumed): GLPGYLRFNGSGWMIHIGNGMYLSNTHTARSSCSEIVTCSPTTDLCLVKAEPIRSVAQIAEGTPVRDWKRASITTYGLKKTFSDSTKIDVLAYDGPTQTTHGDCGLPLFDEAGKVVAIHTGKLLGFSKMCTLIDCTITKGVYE

FIPV 3CLpro = system: FIPV 3CLpro; parameters: method as in PMID 30342822; settings: FRET assay; read-out: IC50 against FIPV 3CLpro; cited from earlier work
FIP = system: FIP; parameters: method as in PMID 27027316, PMID 28901812; settings: cited from earlier work
murine norovirus = system: murine norovirus; parameters: method as in PMID 25761614; settings: intestinal tracts of mice; cited from earlier work

Q: Which results are given for `O=C(N[C@@H](CC1CCCCC1)C(=O)N[C@H](C[C@@H]1CCNC1=O)C(=O)C(=O)NC1CC1)OCc1cccc(Cl)c1` [GC591]?
A: IC50 (GI.3P-GI.2 TX1 3CLpro): 0.73 ± 0.27 µM; CC50 at 5 h [1]: > 100 µM; EC50 (3CLpro of GI.3P-GI.2 TX1): 9.8 ± 1.26 µM; IC50 (GI.1c/RHDV FRG 3CLpro): 0.59 ± 0.04 µM; IC50 (GII.1/EBHSV G104 3CLpro): 0.43 ± 0.07 µM

Q: For `CC(C)C[C@H](NC(=O)OCc1ccccc1)C(=O)N[C@H](C[C@@H]1CCNC1=O)C(O)S(=O)(=O)O` (stereo partly shown) [GC376], which IC50 (GI.3P-GI.2 TX1 3CLpro) is on record?
A: 1.39 µM

Q: What about the CC50 at 5 h [1] of the same compound?
A: > 100 µM

Q: And the EC50 (3CLpro of GI.3P-GI.2 TX1)?
A: 5.35 ± 0.14 µM

Q: What about the IC50 (FIPV 3CLpro) of the same compound?
A: 0.5 µM

Q: And the “in vivo efficacy in cats with FIP” value (FIP)?
A: reduced viral replication and improved survival

Q: What about the IC50 (GI.1c/RHDV FRG 3CLpro) of the same compound?
A: 1.21 µM

Q: And the IC50 (GII.1/EBHSV G104 3CLpro)?
A: 1 µM

Q: With `CC(C)CC(NC(=O)C(Cc1cccc2ccccc12)NC(=O)OCc1ccccc1)C(=O)NC(C=O)CC1CCNC1=O` (stereo not shown) [NPI52] as the compound, how does the IC50 (GI.3P-GI.2 TX1 3CLpro) read?
A: 0.57 ± 0.36 µM

Q: What about the CC50 at 5 h [1] of the same compound?
A: > 100 µM

Q: What about the EC50 (3CLpro of GI.3P-GI.2 TX1) of the same compound?
A: 4 ± 0.43 µM

Q: What about the IC50 (GI.1c/RHDV FRG 3CLpro) of the same compound?
A: 0.31 ± 0.02 µM

Q: And the IC50 (GII.1/EBHSV G104 3CLpro)?
A: 0.3 ± 0.09 µM

Q: Which IC50 (GI.3P-GI.2 TX1 3CLpro) does the source give for `O=C[C@@H](C[C@@H]1CCNC1=O)NC(=O)[C@H](CC1CCCCC1)NC(=O)OCc1cccc(Cl)c1` [GC583] here?
A: 0.1 ± 0.08 µM

Q: What about the CC50 at 5 h [1] of the same compound?
A: > 100 µM

Q: And the “in vivo efficacy, murine norovirus replication” value (murine norovirus)?
A: significantly decreasing murine norovirus replication in the intestinal tracts of mice without toxicity

Q: And the EC50 (3CLpro of GI.3P-GI.2 TX1)?
A: 0.46 ± 0.05 µM

Q: And the IC50 (GI.1c/RHDV FRG 3CLpro)?
A: 0.08 ± 0.02 µM

Q: And the IC50 (GII.1/EBHSV G104 3CLpro)?
A: 0.05 ± 0.01 µM

Q: Which IC50 (GI.3P-GI.2 TX1 3CLpro) does the source give for `O=C[C@@H](C[C@@H]1CCNC1=O)NC(=O)[C@H](CC1CCCCC1)NC(=O)OCc1ccccc1` [GC543] here?
A: 0.12 ± 0.07 µM

Q: And the CC50 at 5 h [1]?
A: > 100 µM

Q: And the EC50 (3CLpro of GI.3P-GI.2 TX1)?
A: 0.55 ± 0.06 µM

Q: And the IC50 (GI.1c/RHDV FRG 3CLpro)?
A: 0.09 ± 0.03 µM

Q: What about the IC50 (GII.1/EBHSV G104 3CLpro) of the same compound?
A: 0.07 ± 0.01 µM

Source: paper PMC9430360 (Microbiology Spectrum, 2022)
